Values of other authors in patent US7015306B2 (BioSynthema, Inc., priority 1999, dated 2006).

Target: human brain neurotensin membranes
Conditions: read-out: Kd for binding on human brain neurotensin membranes; cited from earlier work

monoiodo-125 derivative of natural neurotensin: monoiodo-125 derivative of natural neurotensin, radioiodo analog from the literature
Kd: 0.26 nM
